According to ChEMBL document CHEMBL1201862, “PubChem BioAssay data set” (2004):
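Cultured in 96-well plates, cells were exposed to test compound for 48 hours across five concentrations. Here, GI50 denotes the concentration required for 50% inhibition of growth.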 Activity calls are given as the source filed them. Cut-off read from the data, not from the text of the source: active = GI50 up to about 1.1 µM and inactive = higher.

Columns and labels:
Assay in all cases: NCI anticancer screen, dose series, 48 h
[1] = test system: UACC-62
[2] = test system: A498
[3] = test system: UACC-257
[4] = test system: Malme-3M
[5] = test system: NCI-H522
[6] = test system: 786-0
[7] = test system: MDA-MB-435
[8] = test system: COLO 205
[9] = test system: SK-MEL-2
[10] = test system: SK-MEL-28
[11] = test system: DU-145
[12] = test system: PC-3
[13] = test system: EKVX
[14] = test system: NCI/ADR-RES
[15] = test system: HL-60
[16] = test system: RPMI-8226
[17] = test system: NCI-H226
[18] = test system: NCI-H460
[19] = test system: LOX IMVI
[20] = test system: MDA-MB-231
[21] = test system: U-251
[22] = test system: OVCAR-4
[23] = test system: MDA-N
[24] = test system: SF-295
[25] = test system: IGROV-1
[26] = test system: SK-OV-3
[27] = test system: OVCAR-5
[28] = test system: SF-268
[29] = test system: SW-620
[30] = test system: A549
[31] = test system: OVCAR-3
[32] = test system: ACHN
[33] = test system: M14
[34] = test system: CCRF-CEM
[35] = test system: BT-549
[36] = test system: CAKI-1
[37] = test system: MOLT-4
[38] = test system: NCI-H23
[39] = test system: T47D
[40] = test system: OVCAR-8
[41] = test system: HT-29
[42] = test system: KM12
[43] = test system: SF-539
[44] = test system: SK-MEL-5
[45] = test system: HCT-15
[46] = test system: K562
[47] = test system: RXF 393
[48] = test system: MCF7
[49] = test system: SN12C
[50] = test system: Hs-578T
[51] = test system: HCT-116
[52] = test system: TK-10
[53] = test system: HCC 2998
[54] = test system: SNB-19
[55] = test system: HOP-62
[56] = test system: UO-31
[57] = test system: SNB-75
[58] = test system: HOP-92

In the case of `CCCCCCCCCc1c(O)c(O)c(CCCCCCCCC)c(CCCCCCCCC)c1CCCCCCCCC`, the GI50 [1] was > 100 µM (inactive), the GI50 [2] was > 100 µM (inactive) and the GI50 [3] was > 100 µM (inactive). For the same molecule, the GI50 [4] was 96.8 µM (inactive), the GI50 [5] was 30.2 µM (inactive) and the GI50 [6] was > 100 µM (inactive). For the same molecule, the GI50 [7] was 47.2 µM (inactive), the GI50 [8] was > 100 µM (inactive) and the GI50 [9] was > 100 µM (inactive). For the same molecule, the GI50 [10] was > 100 µM (inactive), the GI50 [11] was > 100 µM (inactive) and the GI50 [12] was > 100 µM (inactive). For the same molecule, the GI50 [13] was > 100 µM (inactive), the GI50 [14] was > 100 µM (inactive) and the GI50 [15] was 26.4 µM (inactive). For the same molecule, the GI50 [16] was > 100 µM (inactive), the GI50 [17] was > 100 µM (inactive) and the GI50 [18] was > 100 µM (inactive). The GI50 [19] was > 100 µM (inactive), the GI50 [20] was > 100 µM (inactive) and the GI50 [21] was > 100 µM (inactive). For the same molecule, the GI50 [22] was > 100 µM (inactive), the GI50 [23] was 50.6 µM (inactive) and the GI50 [24] was > 100 µM (inactive). The GI50 [25] was > 100 µM (inactive), the GI50 [26] was > 100 µM (inactive) and the GI50 [27] was > 100 µM (inactive). For the same molecule, the GI50 [28] was > 100 µM (inactive), the GI50 [29] was > 100 µM (inactive) and the GI50 [30] was > 100 µM (inactive). The GI50 [31] was 37.9 µM (inactive), the GI50 [32] was > 100 µM (inactive) and the GI50 [33] was > 100 µM (inactive). For the same molecule, the GI50 [34] was 31 µM (inactive), the GI50 [35] was > 100 µM (inactive) and the GI50 [36] was > 100 µM (inactive). For the same molecule, the GI50 [37] was > 100 µM (inactive), the GI50 [38] was > 100 µM (inactive) and the GI50 [39] was > 100 µM (inactive). The GI50 [40] was > 100 µM (inactive), the GI50 [41] was > 100 µM (inactive) and the GI50 [42] was > 100 µM (inactive). The GI50 [43] was > 100 µM (inactive), the GI50 [44] was > 100 µM (inactive) and the GI50 [45] was over 100 µM. For the same molecule, the GI50 [46] was 65.9 µM (inactive), the GI50 [47] was > 100 µM (inactive) and the GI50 [48] was 8.18 µM (inactive). For the same molecule, the GI50 [49] was > 100 µM (inactive), the GI50 [50] was > 100 µM (inactive) and the GI50 [51] was > 100 µM (inactive). For the same molecule, the GI50 [52] was > 100 µM (inactive), the GI50 [53] was > 100 µM (inactive) and the GI50 [54] was > 100 µM (inactive). The GI50 [55] was > 100 µM (inactive).
With `CC(C)N/C(=N\C#N)NS(=O)(=O)c1cnccc1Nc1ccc(Cl)cc1` the GI50 [1] was > 100 µM (inactive), the GI50 [2] was > 100 µM (inactive) and the GI50 [3] was > 100 µM (inactive). The GI50 [4] was > 100 µM (inactive), the GI50 [5] was > 100 µM (inactive) and the GI50 [6] was > 100 µM (inactive). The GI50 [7] was > 100 µM (inactive), the GI50 [8] was > 100 µM (inactive) and the GI50 [9] was > 100 µM (inactive). For the same molecule, the GI50 [10] was > 100 µM (inactive), the GI50 [11] was > 100 µM (inactive) and the GI50 [12] was > 100 µM (inactive). For the same molecule, the GI50 [13] was > 100 µM (inactive), the GI50 [14] was > 100 µM (inactive) and the GI50 [56] was > 100 µM (inactive). The GI50 [16] was > 100 µM (inactive), the GI50 [17] was > 100 µM (inactive) and the GI50 [20] was > 100 µM (inactive). The GI50 [21] was > 100 µM (inactive), the GI50 [22] was > 100 µM (inactive) and the GI50 [23] was > 100 µM (inactive). The GI50 [24] was > 100 µM (inactive), the GI50 [25] was > 100 µM (inactive) and the GI50 [26] was > 100 µM (inactive). The GI50 [27] was > 100 µM (inactive), the GI50 [28] was > 100 µM (inactive) and the GI50 [29] was > 100 µM (inactive). For the same molecule, the GI50 [30] was > 100 µM (inactive), the GI50 [31] was > 100 µM (inactive) and the GI50 [32] was > 100 µM (inactive). The GI50 [33] was > 100 µM (inactive), the GI50 [34] was > 100 µM (inactive) and the GI50 [35] was > 100 µM (inactive). For the same molecule, the GI50 [36] was > 100 µM (inactive), the GI50 [37] was > 100 µM (inactive) and the GI50 [38] was > 100 µM (inactive). The GI50 [39] was > 100 µM (inactive), the GI50 [40] was > 100 µM (inactive) and the GI50 [41] was > 100 µM (inactive). For the same molecule, the GI50 [42] was > 100 µM (inactive), the GI50 [44] was > 100 µM (inactive) and the GI50 [45] was over 100 µM. The GI50 [46] was > 100 µM (inactive), the GI50 [47] was > 100 µM (inactive) and the GI50 [48] was > 100 µM (inactive). The GI50 [49] was > 100 µM (inactive), the GI50 [50] was > 100 µM (inactive) and the GI50 [51] was > 100 µM (inactive). The GI50 [52] was > 100 µM (inactive), the GI50 [57] was > 100 µM (inactive) and the GI50 [53] was > 100 µM (inactive). For the same molecule, the GI50 [54] was > 100 µM (inactive) and the GI50 [55] was > 100 µM (inactive).
For `CC(=N/NC(=S)N1CCCCC1)/C(=N\NC(=S)N1CCCCC1)c1ccccc1`, the GI50 [1] was 1.77 µM (inactive), the GI50 [2] was 1.3 µM (inactive) and the GI50 [3] was 1.95 µM (inactive). The GI50 [4] was 2.13 µM (inactive), the GI50 [5] was 2.23 µM (inactive) and the GI50 [6] was 1.99 µM (inactive). For the same molecule, the GI50 [7] was 2.08 µM (inactive), the GI50 [8] was 2.22 µM (inactive) and the GI50 [9] was 2.11 µM (inactive). For the same molecule, the GI50 [10] was 2.09 µM (inactive), the GI50 [11] was 0.512 µM (active) and the GI50 [58] was 1.9 µM (inactive). For the same molecule, the GI50 [12] was 1.64 µM (inactive), the GI50 [13] was 1.89 µM (inactive) and the GI50 [14] was 2.65 µM (inactive). For the same molecule, the GI50 [56] was 1.76 µM (inactive), the GI50 [16] was 3.36 µM (inactive) and the GI50 [17] was 1.91 µM (inactive). The GI50 [18] was 1.91 µM (inactive), the GI50 [19] was 3.43 µM (inactive) and the GI50 [20] was 2.7 µM (inactive). For the same molecule, the GI50 [21] was 1.68 µM (inactive), the GI50 [22] was 1.85 µM (inactive) and the GI50 [23] was 2.61 µM (inactive). For the same molecule, the GI50 [24] was 1.87 µM (inactive), the GI50 [25] was 1.72 µM (inactive) and the GI50 [26] was 1.95 µM (inactive). For the same molecule, the GI50 [27] was 2 µM (inactive), the GI50 [28] was 1.79 µM (inactive) and the GI50 [29] was 2.15 µM (inactive). The GI50 [30] was 2.03 µM (inactive), the GI50 [31] was 1.65 µM (inactive) and the GI50 [32] was 1.6 µM (inactive). The GI50 [33] was 1.99 µM (inactive), the GI50 [35] was 1.91 µM (inactive) and the GI50 [36] was 2.04 µM (inactive). For the same molecule, the GI50 [37] was 6.19 µM (inactive), the GI50 [38] was 2.2 µM (inactive) and the GI50 [39] was 2.12 µM (inactive). The GI50 [40] was 2.64 µM (inactive), the GI50 [41] was 2.1 µM (inactive) and the GI50 [42] was 1.97 µM (inactive). The GI50 [43] was 2.67 µM (inactive), the GI50 [44] was 1.96 µM (inactive) and the GI50 [45] was 2.1 µM. For the same molecule, the GI50 [46] was 4.74 µM (inactive), the GI50 [47] was 1.35 µM (inactive) and the GI50 [48] was 2.75 µM (inactive). The GI50 [49] was 1.82 µM (inactive), the GI50 [50] was 1.84 µM (inactive) and the GI50 [51] was 2.53 µM (inactive). For the same molecule, the GI50 [52] was 1.74 µM (inactive), the GI50 [57] was 1.91 µM (inactive) and the GI50 [53] was 2.3 µM (inactive). For the same molecule, the GI50 [54] was 1.87 µM (inactive) and the GI50 [55] was 2.04 µM (inactive).
